These results are taken from the Deep4Chem optical property database.

This series in a line: photoluminescence quantum yield (fraction); solvent given as SMILES.
The mark [1] stands for this setting: in c1cc(-c2cccc(-n3c4ccccc4c4ccccc43)c2)cc(-n2c3ccccc3c3ccccc32)c1.

In turn, `c1ccc(-c2nc(-c3ccccc3)nc(-c3ccc(-c4ccc5c(c4)[Si](c4ccccc4)(c4ccccc4)c4cc(-c6ccc(-c7nc(-c8ccccc8)nc(-c8ccccc8)n7)cc6)ccc4N5c4ccccc4)cc3)n2)cc1` yielded a photoluminescence quantum yield under setting [1] of 0.96.

As for `CN(C)c1ccc2c(c1)[Si](C)(C)C1=CC(=[N+](C)C)C=CC1=C2C#Cc1ccccc1`, the photoluminescence quantum yield amounted to 0.07 (in CO) and 0.004 (in O).

For the compound `COc1ccc(C#Cc2c3cc4cc(C)sc4cc3c(C#Cc3ccc(OC)cc3)c3cc4cc(C)sc4cc23)cc1`, the photoluminescence quantum yield (in ClCCl) came out at 0.92.

Take `CC1(C)c2ccccc2-n2c(-c3ccc(-n4c5ccccc5c5ccccc54)cc3)nc3cccc1c32`: the photoluminescence quantum yield was 0.99 (in Cc1ccccc1) and 0.85 (in O=P(c1ccccc1)(c1ccccc1)c1ccccc1Oc1ccccc1P(=O)(c1ccccc1)c1ccccc1).

`CC(C)(C)c1ccc(-c2cc3c4c(c2)CCc2cc(-c5ccc(C(C)(C)C)cc5)cc(c2-4)CC3)cc1`: the photoluminescence quantum yield (in C1CCCCC1) is 0.61; the photoluminescence quantum yield (in C1CCOC1) is 0.68; the photoluminescence quantum yield (in CC#N) is 0.55; the photoluminescence quantum yield (in CCCCCC) came out at 0.52; the photoluminescence quantum yield (in CCO) worked out at 0.48; the photoluminescence quantum yield (in CN(C)C=O) came to 0.66. Further, the photoluminescence quantum yield (in CO) was determined as 0.39, the photoluminescence quantum yield (in Cc1ccccc1) turned out to be 1, the photoluminescence quantum yield (in ClC(Cl)Cl) was 0.53 and the photoluminescence quantum yield (in ClCCl) was found to be 1.

`N#C/C(=C\c1ccc(C#N)cc1)c1nc(-c2ccc(Cl)cc2)cs1` displayed a photoluminescence quantum yield (in CC#N) of 0.18.

Take `Cc1nc(-c2ccc(-n3c4ccccc4c4ccccc43)cc2)cc(-c2ccc(-n3c4ccccc4c4ccccc43)cc2)n1`: the photoluminescence quantum yield runs as follows: (in C1CCOC1) 0.61; (in CN(C)C=O) 0.73; (in Cc1ccccc1) 0.65; (in ClC(Cl)Cl) 0.61.

For the compound `CCN(CC)c1ccc(C=Cc2nc3nc4ccccc4nc3s2)c(OC)c1`, the photoluminescence quantum yield (in CCO) was determined as 0.32.

`C=CCNc1ccc2ccc3oc4cc(=[N+]5CCCC5)ccc-4nc3c2c1` came in with a photoluminescence quantum yield (in CC#N) of 0.1, a photoluminescence quantum yield (in CCO) of 0.04, a photoluminescence quantum yield (in ClCCl) of 0.13 and a photoluminescence quantum yield (in O) of 0.006.

Consider `COCCOCCOCCOCCOc1ccc(OCCOCCOCCOCCOC)c(C=O)c1`, for which the photoluminescence quantum yield by setting is: (in CC(C)(C)O) 0.19; (in CC(C)CO) 0.29; (in CC(C)O) 0.24; (in CCCCO) 0.32; (in CCCO) 0.27; (in CCO) 0.25. The compound further returned a photoluminescence quantum yield (in CN(C)C=O) of 0.02; a photoluminescence quantum yield (in CNC=O) of 0.1; a photoluminescence quantum yield (in CO) of 0.22; a photoluminescence quantum yield (in NC=O) of 0.43; a photoluminescence quantum yield (in O) of 0.11.

Turning to `Cc1nc(-c2ccccc2O)n2c1CCCC2`, where the note is “in ClCCl”, the photoluminescence quantum yield was determined as 0.63.

As to `CC(C)[Si](C#Cc1c2ccccc2c(C#C[Si](C(C)C)(C(C)C)C(C)C)c2nc3cc4c(cc3nc12)C1c2ccccc2C4c2ccccc21)(C(C)C)C(C)C`, the photoluminescence quantum yield stood at 0.57 (in CCCCCC) and 0.76 (in ClCCl).

Regarding `C[N+]1=C(/C=C/C=C2/N(CCC[N+](C)(C)C)c3ccccc3C2(C)C)C(C)(C)c2ccccc21`, under “in CS(C)=O”, the photoluminescence quantum yield is 0.08.

With `CC1(C)c2ccccc2N(c2ccc(S(=O)(=O)c3ccc(N4c5ccccc5C(C)(C)c5ccccc54)cc3)cc2)c2ccccc21`, the photoluminescence quantum yield runs as follows: (in C1COCCO1) 0.8; (in CC(C)=O) 0.59; (in Cc1ccccc1) 0.8; (in ClC(Cl)Cl) 0.8; (in c1cc(-n2c3ccccc3c3ccccc32)cc(-n2c3ccccc3c3ccccc32)c1) 0.8.

For the setting “in ClC(Cl)Cl”, `N#CC1=CC(Br)=CC(C#N)=P1(c1ccccc1)c1ccccc1` came in with a photoluminescence quantum yield of 0.52.

Turning to `COc1cc2c(cc1OC)C1=C3C(=O)N4C=Cc5cc(OC)c(OC)cc5C4=C3C(=O)N1C=C2`, the photoluminescence quantum yield worked out at 0.7 (in CN(C)C=O) and 0.85 (in ClC(Cl)Cl).

`COC(=O)c1ccc(C(=O)NC(C)(C)C)c2c1ccc1c3ccccc3c3ccccc3c12` yielded a photoluminescence quantum yield (in ClCCl) of 0.08.

`COC(=O)C1=C(C(=O)OC)C2(c3ccccc3-c3c(Br)cc(Br)cc32)C2(/C=C/c3ccccc3)c3cc(OC)c(OC)cc3CCN12` (stereo not drawn): under “in ClCCl”, the photoluminescence quantum yield turned out to be 0.00091.

Consider `CCN(CC)c1ccc2c(c1)OC1=[N+](c3ccc(I)cc3)[B-](F)(F)n3c(nc4ccccc43)C1=C2`, for which the photoluminescence quantum yield (in ClCCl) amounted to 0.81.

Under “in ClC(Cl)Cl”, `c1ccc(N(c2ccccc2)c2ccc(-c3ccc(-c4ccc(-c5ccc(-c6ccc(N(c7ccccc7)c7ccccc7)cc6)s5)c5nsnc45)s3)cc2)cc1` showed a photoluminescence quantum yield of 0.23.

As to `COc1ccc(C2=N/C(=C\c3ccc(C#N)cc3)C(=O)O2)cc1OC`, the photoluminescence quantum yield (in C1COCCO1) was 0.421.

`c1ccc(-c2cc3cccc[n+]3[b-]3ccc(-c4cc[b-]5c(c4)c(-c4ccccc4)cc4cccc[n+]54)cc32)cc1` registered a photoluminescence quantum yield (in C1CCCCC1) of 0.16.

For the compound `N#CC1=CC=CC(C#N)=P1(c1ccccc1)c1ccccc1`, the photoluminescence quantum yield (in ClC(Cl)Cl) was found to be 0.92.

`COC(=O)c1[nH]c(-c2ccc([N+](=O)[O-])cc2)c2nnc3ccc(OC)cc3c12` returned a photoluminescence quantum yield (in ClCCl) of 0.262.

Take `CC(C)(C)c1cc(-c2ccc(-c3cccs3)s2)c2c(c1)c1cc(C(C)(C)C)cc(-c3ccc(-c4cccs4)s3)c1n2-c1ccc(-c2cccs2)s1`: the photoluminescence quantum yield (in ClCCl) came out at 0.092.

Turning to `CCN1C(=CC=Cc2n(CC)c3cc(Cl)c(Cl)cc3[n+]2CC)N(CC)c2cc(Cl)c(Cl)cc21`, the photoluminescence quantum yield by setting is: (in CC#N) 0.024; (in CCCCCCO) 0.058; (in CCCCO) 0.042; (in CCCO) 0.033; (in CCO) 0.023; (in CO) 0.016. This compound returned a photoluminescence quantum yield (in CS(C)=O) of 0.055, a photoluminescence quantum yield (in OCC(O)CO) of 0.36 and a photoluminescence quantum yield (in OCCO) of 0.075.

`Cc1ccc(-n2c3ccccc3c3cc(C(=C(C#N)C#N)c4ccccc4)ccc32)cc1`: the photoluminescence quantum yield by setting is: (in C1CCOC1) 0.12; (in CC#N) 0.07; (in CC(C)=O) 0.05; (in CCOC(C)=O) 0.09; (in CO) 0.01; (in CS(C)=O) 0.02. For the same compound, the photoluminescence quantum yield by setting is: (in Cc1ccccc1) 0.14; (in ClC(Cl)Cl) 0.13.

As for `Cc1ccc(C2=Nc3cccc4[n+]3[B-](F)(O2)OC(c2ccc(C)cc2)=N4)cc1`, where the note is “in ClCCl”, the photoluminescence quantum yield worked out at 0.3.

For `c1ccc(-c2c3ccccc3c(-c3ncccn3)c3ccccc23)cc1`, the photoluminescence quantum yield runs as follows: (in CCO) 0.08; (in ClCCl) 0.16.

In the case of `CC(C)[Si](C#Cc1c2ccc(C(C)(C)C)cc2c(C#Cc2c3ccc(C(C)(C)C)cc3c(C#Cc3c4ccc(C(C)(C)C)cc4c(C#C[Si](C(C)C)(C(C)C)C(C)C)c4ccc(C(C)(C)C)cc34)c3ccc(C(C)(C)C)cc23)c2ccc(C(C)(C)C)cc12)(C(C)C)C(C)C`, the photoluminescence quantum yield (in Cc1ccccc1) stood at 0.022.

`C(=C\c1ncc(-c2ccc(OCc3ccccc3)c(OCc3ccccc3)c2)o1)/c1cccc(N2CCN(c3ccccc3)CC2)c1` yielded a photoluminescence quantum yield (in ClCCl) of 0.11.

The compound `CCc1c(C(=O)OC)c(C(=O)OC)c2ccc(-c3ccccc3)nn12` had a photoluminescence quantum yield (in CCCCCC) of 0.543.

Regarding `CCC1=C(C)C2=C(C)c3cccn3[B-](F)(F)[N+]2=C1C`, the photoluminescence quantum yield was found to be 0.96 (in C1CCCCC1); 0.79 (in CC(C)=O); 0.84 (in CCO); 0.84 (in CCOC(C)=O); 0.76 (in CO); 0.75 (in OCC(F)(F)F).

Turning to `Brc1ccc(N(c2ccc(/C=C/c3ccncn3)cc2)c2ccc(/C=C/c3ccncn3)cc2)cc1`, where the note is “in ClCCl”, the photoluminescence quantum yield amounted to 0.69.

`O=C(c1ccc(C(=O)c2ccc(N3c4ccccc4Oc4ccccc43)cc2)cc1)c1ccc(N2c3ccccc3Oc3ccccc32)cc1`: the photoluminescence quantum yield (in Cc1ccccc1) came to 0.1 and the photoluminescence quantum yield under setting [1] came to 0.36.

In turn, `Cc1c(C)c(B(c2c(C)c(C)c(C#N)c(C)c2C)c2c(C)c(C)c(N3c4ccccc4Oc4ccccc43)c(C)c2C)c(C)c(C)c1C#N` had a photoluminescence quantum yield (in c1ccc([Si](c2ccccc2)(c2ccc(-n3c4ccccc4c4ccccc43)cc2)c2ccc(-n3c4ccccc4c4ccccc43)cc2)cc1) of 0.67.

As to `CC1=c2ccccc2=[N+]2C1=Cc1c3ccccc3c(-c3[nH]c4ccccc4c3C)n1[B-]2(F)F`, the photoluminescence quantum yield (in ClCCl) was found to be 0.08.

Turning to `c1ccc2c(c1)CCc1c-2cnc2c1-c1ccccc1CC2`, the photoluminescence quantum yield (in C1CCOC1) amounted to 0.665; the photoluminescence quantum yield (in CC#N) worked out at 0.69; the photoluminescence quantum yield (in CCCCCC) was found to be 0.149; the photoluminescence quantum yield (in CCOC(C)=O) is 0.567; the photoluminescence quantum yield (in CO) was determined as 0.141; the photoluminescence quantum yield (in CS(C)=O) stood at 0.227. In addition, the photoluminescence quantum yield is 0.513 (in Cc1ccccc1) and 0.291 (in ClCCl).

Regarding `CC(C)(C)c1ccc2ccc3cc(-c4ccc5c(-c6ccc7c(ccc8ccc(C(C)(C)C)cc87)c6)cc6c7cc(-c8ccc9c(ccc%10ccc(C(C)(C)C)cc%109)c8)ccc7c(-c7ccc8c(ccc9ccc(C(C)(C)C)cc98)c7)cc6c5c4)ccc3c2c1`, where the note is “in ClCCl”, the photoluminescence quantum yield came out at 0.781.

As for `CCCN1c2ccccc2Sc2cc(/C=C\c3cc(=O)oc4cc(O)ccc34)ccc21`, where the note is “in ClC(Cl)Cl”, the photoluminescence quantum yield worked out at 0.74.

Regarding `COc1ccc(/C=C/C2=CC(/C=C/c3ccc(OC)c4ccccc34)=[O+][B-](F)(F)O2)c2ccccc12`, the photoluminescence quantum yield runs as follows: (in CC#N) 0.12; (in CC(C)=O) 0.21; (in CCOC(C)=O) 0.31; (in CCOCC) 0.29; (in ClC(Cl)(Cl)Cl) 0.23; (in ClCCl) 0.39.
